The record followed here is patent publication US20160002248A1, “GLS1 INHIBITORS FOR TREATING DISEASE” (Board of Regents, The University of Texas System, priority 2014, published 2016).

In one test the test system is A549 cells. As to the kind of experiment: Proliferation Assay (A549 cell viability, Cell Titer Fluor). It is filed as cell-based. Conditions: 72 hours. The gist of the method:
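A549 cells seeded at 1000 cells/well, left 24 h, then exposed to compound for 72 h at 37 °C, 5% CO2, final DMSO 0.5% (v/v). Viability read by Cell Titer Fluor fluorescence; EC50 from four-parameter logistic fit.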

The target of test [1] is T1, purified recombinant human GAC (GLS1) (Homo sapiens, UniProt O94925).
T1 sequence (O94925 55-598 isoform O94925-3 limits assumed): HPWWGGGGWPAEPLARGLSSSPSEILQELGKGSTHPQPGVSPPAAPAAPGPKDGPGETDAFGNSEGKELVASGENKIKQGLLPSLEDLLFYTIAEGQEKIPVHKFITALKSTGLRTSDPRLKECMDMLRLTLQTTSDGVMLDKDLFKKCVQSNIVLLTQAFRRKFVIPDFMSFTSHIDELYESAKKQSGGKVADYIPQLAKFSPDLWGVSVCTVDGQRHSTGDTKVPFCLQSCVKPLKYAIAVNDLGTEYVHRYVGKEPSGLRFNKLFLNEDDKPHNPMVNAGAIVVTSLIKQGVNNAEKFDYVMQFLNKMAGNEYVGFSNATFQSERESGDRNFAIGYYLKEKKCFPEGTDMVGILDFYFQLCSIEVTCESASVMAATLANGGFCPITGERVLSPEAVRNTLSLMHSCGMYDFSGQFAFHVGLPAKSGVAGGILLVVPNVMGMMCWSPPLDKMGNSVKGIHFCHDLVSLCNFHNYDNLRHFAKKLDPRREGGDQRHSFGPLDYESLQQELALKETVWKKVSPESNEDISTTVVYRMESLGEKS
Description: GLS1 Enzymatic Activity Assay (dual-coupled enzymatic assay). In kind it is biochemical. An outline of the steps:
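GAC activity measured by coupling glutamate to glutamate oxidase and HRP, generating resorufin from Amplex UltraRed. Enzyme (2 nM) preincubated with 50 mM potassium phosphate 10 min at room temperature, then inhibitor 10 min; 1 mM glutamine substrate, 1% DMSO. Fluorescence 530/590 nm, kinetic or 20-min endpoint; IC50 from four-parameter logistic fit.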

For the compound `CC(C)(C(=O)N1CC(c2cc3cc(CCCCn4cc(C(=O)NCc5cc(OC(F)(F)F)ccc5F)nn4)nnc3[nH]2)C1)C(F)(F)F` [Example 229, N-(2-fluoro-5-(trifluoromethoxy)benzyl)-1-(4-(6-(1-(3,3,3-trifluoro-2,2-dimethylpropanoyl)azetidin-3-yl)-7H-pyrrolo[2,3-c]pyridazin-3-yl)butyl)-1H-1,2,3-triazole-4-carboxamide], the concentration for a half-maximal effect (EC50) in the test on A549 cells (Homo sapiens) is under 100 nM. In test [1], the IC50 was under 100 nM.
`CC(C)S(=O)(=O)N1CC(c2cc3cc(CCCCn4cc(C(=O)NCc5cc(OC(F)(F)F)ccc5F)nn4)nnc3[nH]2)C1` [Example 230, N-{[2-fluoro-5-(trifluoromethoxy)phenyl]methyl}-1-(4-{6-[1-(propane-2-sulfonyl)azetidin-3-yl]-7H-pyrrolo[2,3-c]pyridazin-3-yl}butyl)-1H-1,2,3-triazole-4-carboxamide]: the 50% effective concentration (EC50) with A549 cells (Homo sapiens) was 100 to 500 nM. In test [1], the IC50 is under 100 nM.
Taken in the same sequence, the figures for `Cc1ccc(CNC(=O)c2cn(CC(F)CCc3cc4cc(C5CC5)[nH]c4nn3)nn2)cn1` (stereo not shown) [Example 231, 1-(4-{6-cyclopropyl-7H-pyrrolo[2,3-c]pyridazin-3-yl)-2-fluorobutyl)-N-[(6-methylpyridin-3-yl)methyl]-1H-1,2,3-triazole-4-carboxamide] were 100 to 500 nM and under 100 nM.
Taken in the same sequence, the figures for `Cc1ccc(CNC(=O)c2cn(CCCCc3cc4cc(-c5cc(F)cc(F)c5)[nH]c4nn3)nn2)cn1` [Example 232, 1-{4-[6-(3,5-difluorophenyl)-7H-pyrrolo[2,3-c]pyridazin-3-yl]butyl}-N-[(6-methylpyridin-3-yl)methyl]-1H-1,2,3-triazole-4-carboxamide] were 100 to 500 nM and under 100 nM.
`O=C(NCc1cc(OC(F)(F)F)ccc1F)c1cn(CCCCc2cc3cc(C4CN(C(=O)OC5CCC5)C4)[nH]c3nn2)nn1` [Example 233, cyclobutyl 3-(3-{4-[4-({[2-fluoro-5-(trifluoromethoxy)phenyl]methyl}carbamoyl)-1H-1,2,3-triazol-1-yl]butyl}-7H-pyrrolo[2,3-c]pyridazin-6-yl)azetidine-1-carboxylate] showed a concentration for a half-maximal effect (EC50) in the test with A549 cells (Homo sapiens) of under 100 nM. The IC50 in test [1] is under 100 nM.
Regarding `O=C(NCc1cc(OC(F)(F)F)ccc1F)c1cn(CCCCc2cc3cc(C4CN(S(=O)(=O)C(F)(F)F)C4)[nH]c3nn2)nn1` [Example 234, N-{[2-fluoro-5-(trifluoromethoxy)phenyl]methyl}-1-{4-[6-(1-trifluoromethanesulfonyl-azetidin-3-yl)-7H-pyrrolo[2,3-c]pyridazin-3-yl]butyl}-1H-1,2,3-triazole-4-carboxamide], the EC50 with A549 cells (Homo sapiens) is under 100 nM. For the same compound, the IC50 in test [1] is under 100 nM.
Compound `O=C(NCc1cc(OC(F)(F)F)ccc1F)c1cn(CCCCc2cc3cc(C4CN(C(=O)C5COC5)C4)[nH]c3nn2)nn1` [Example 235, N-{[2-fluoro-5-(trifluoromethoxy)phenyl]methyl}-1-(4-{6-[1-(oxetane-3-carbonyl)azetidin-3-yl]-7H-pyrrolo[2,3-c]pyridazin-3-yl}butyl)-1H-1,2,3-triazole-4-carboxamide] showed an EC50 in the test on A549 cells (Homo sapiens) of 500 to 5000 nM. The IC50 in test [1] is under 100 nM.
In the same order, the values of `Cc1ccc(CNC(=O)c2cn(CCCCc3cc4cc(-c5ccccc5Cl)[nH]c4nn3)nn2)cn1` [Example 236, 1-{4-[6-(2-chlorophenyl)-7H-pyrrolo[2,3-c]pyridazin-3-yl]butyl}-N-[(6-methylpyridin-3-yl)methyl]-1H-1,2,3-triazole-4-carboxamide] are 100 to 500 nM and under 100 nM.
In the same order, the values of `COCCOC(=O)N1CC(c2cc3cc(CCCCn4cc(C(=O)NCc5cc(OC(F)(F)F)ccc5F)nn4)nnc3[nH]2)C1` [Example 237, 2-methoxyethyl 3-(3-{4-[4-({[2-fluoro-5-(trifluoromethoxy)phenyl]methyl}carbamoyl)-1H-1,2,3-triazol-1-yl]butyl}-7H-pyrrolo[2,3-c]pyridazin-6-yl)azetidine-1-carboxylate] are 100 to 500 nM and under 100 nM.
Take `O=C(NCc1cc(OC(F)(F)F)ccc1F)c1cn(CCCCc2cc3cc(C4CN(C(=O)Cc5ccccc5)C4)[nH]c3nn2)nn1` [Example 238, N-{[2-fluoro-5-(trifluoromethoxy)phenyl]methyl)-1-(4-{6-[1-(2-phenylacetyl)azetidin-3-yl]-7H-pyrrolo[2,3-c]pyridazin-3-yl}butyl)-1H-1,2,3-triazole-4-carboxamide]: the concentration for a half-maximal effect (EC50) with A549 cells (Homo sapiens) was under 100 nM. Besides, in test [1], the IC50 was under 100 nM.
`CC(C)(O)c1ccnc(CNC(=O)c2cn(CCCCc3cc4cc(-c5ccccc5F)[nH]c4nn3)nn2)c1` [Example 239, 1-{4-[6-(2-fluorophenyl)-7H-pyrrolo[2,3-c]pyridazin-3-yl]butyl}-N-{[4-(2-hydroxypropan-2-yl)pyridin-2-yl]methyl}-1H-1,2,3-triazole-4-carboxamide] registered an EC50 in the test with A549 cells (Homo sapiens) of 100 to 500 nM. Besides, the IC50 in test [1] is under 100 nM.
`CNC(=O)c1cn(CCCCc2cc3cc(-c4ccccc4F)[nH]c3nn2)nn1` [Example 240, 1-{4-[6-(2-fluorophenyl)-7H-pyrrolo[2,3-c]pyridazin-3-yl]butyl}-N-methyl-1H-1,2,3-triazole-4-carboxamide] gave an EC50 with A549 cells (Homo sapiens) of 100 to 500 nM. Further, the IC50 in test [1] was in the range of 100 to 500 nM.
Compound `Cc1ccc(CNC(=O)c2cn(CC(F)CCc3cc4cc(-c5ccccc5F)[nH]c4nn3)nn2)cn1` (stereo not shown) [Example 241, 1-(2-fluoro-4-(6-(2-fluorophenyl)-7H-pyrrolo[2,3-c]pyridazin-3-yl)butyl)-N-((6-methylpyridin-3-yl)methyl)-1H-1,2,3-triazole-4-carboxamide] had a 50% effective concentration (EC50) in the test on A549 cells (Homo sapiens) of under 100 nM. Also, the IC50 in test [1] is under 100 nM.
`O=C(NCc1ccccn1)c1cn(CC(F)CCc2cc3cc(-c4ccccc4F)[nH]c3nn2)nn1` (stereo not shown) [Example 242, 1-{2-fluoro-4-[6-(2-fluorophenyl)-7H-pyrrolo[2,3-c]pyridazin-3-yl]butyl}-N-(pyridin-2-ylmethyl)-1H-1,2,3-triazole-4-carboxamide] had an EC50 in the test on A549 cells (Homo sapiens) of 100 to 500 nM. In addition, in test [1], the IC50 was under 100 nM.
As to `CNC(=O)c1cn(CC(F)CCc2cc3cc(-c4ccccc4F)[nH]c3nn2)nn1` (stereo not shown) [Example 243, 1-{2-fluoro-4-[6-(2-fluorophenyl)-7H-pyrrolo[2,3-c]pyridazin-3-yl]butyl}-N-methyl-1H-1,2,3-triazole-4-carboxamide], the EC50 in the test on A549 cells (Homo sapiens) was in the range of 500 to 5000 nM. For the same compound, the IC50 in test [1] was in the range of 100 to 500 nM.
In the test on A549 cells (Homo sapiens), `O=C(NCc1cc(C2CC2)ccn1)c1cn(CC(F)CCc2cc3cc(-c4ccccc4F)[nH]c3nn2)nn1` (stereo not shown) [Example 244, N-[(4-cyclopropylpyridin-2-yl)methyl]-1-{2-fluoro-4-[6-(2-fluorophenyl)-7H-pyrrolo[2,3-c]pyridazin-3-yl]butyl}-1H-1,2,3-triazole-4-carboxamide] gave an EC50 of under 100 nM. The IC50 in test [1] is under 100 nM.
Take “N-(5-(4-(7H-pyrrolo[2,3-c]pyridazin-3-yl)butyl)-1,3,4-thiadiazol-2-yl)-2-phenylacetamide [Example 64]”: in the test on A549 cells, the EC50 was in the range of 500 to 5000 nM. For the same compound, the IC50 in test [1] was under 100 nM.

For orientation: EC50 means the concentration that produces a half-maximal response. One may read the IC50 as the concentration at which inhibition is half-maximal.
